Measured values from US11787847B2, “Method of identifying malodor modulating compounds” (FIRMENICH SA, priority 2017, dated 2023).

Experiments:
[1] = test system: human receptors OR2L13, OR4C15, OR5AC2, OR8H3, OR11G2 or OR52N2; assay: Ca2+ (Calcium 5 dye, FLIPR) dose-response assay in stable HEK293T cell lines (Example 3); format: cell-based; details: increasing concentrations of DMTS, co-expressed Galpha15
Protocol: (§1) Functional dose-response experiments were performed to evaluate the level of DMTS activity of the modified cell lines expressing individual putative DMTS receptors. A cell line stably expressing a human receptor was generated in a HEK293T cell line for each of the following human receptors: OR2L13, OR4C15, OR5AC2, OR8H3, OR11G2 or OR52N2. The receptors were tagged with a FLAG®-Rho tag combination and stably co-expressed with the human G-protein alpha subunit Gals for the cell based assay. Co-expression of the human Gals activates the Gq transduction pathway that leads to an internal Ca^2+ increase upon binding to the appropriate ligand. Receptors were exposed to increasing concentrations of DMTS. Odorant-induced activity was detected by measuring the Ca^2+ increase in the cytosol using a calcium sensitive fluorescent dye (Molecular Devices, Calcium 5 dye, cat. R8186) and measuring the change in Relative Fluorescence Ratio (RFU) using a fluorometric imaging plate reader (Molecular Devices, FLIPR) following odorant exposure. […] A cell line lacking a receptor was used as a control for non-specific activity at high compound concentrations (‘No receptor’). The activity levels are reported by the potency of the DMTS induced-response for each receptor as a measure of the EC50 value.

[2] = target: T1, human receptor OR52N5 (Homo sapiens, UniProt Q8NH56); assay: cell-based dose-response, cAMP increase by HTRF, HEK293T cells (endogenous RTP1 activated) co-transfected with human Golf, Rho-FLAG tagged receptor; details: FIG. 2, Example 2, SEQ ID NO: 24
T1 construct: the human receptors were tagged with a Rho-FLAG® tag combination; expressed in transfected cells
T1 sequence (Q8NH56 1-324): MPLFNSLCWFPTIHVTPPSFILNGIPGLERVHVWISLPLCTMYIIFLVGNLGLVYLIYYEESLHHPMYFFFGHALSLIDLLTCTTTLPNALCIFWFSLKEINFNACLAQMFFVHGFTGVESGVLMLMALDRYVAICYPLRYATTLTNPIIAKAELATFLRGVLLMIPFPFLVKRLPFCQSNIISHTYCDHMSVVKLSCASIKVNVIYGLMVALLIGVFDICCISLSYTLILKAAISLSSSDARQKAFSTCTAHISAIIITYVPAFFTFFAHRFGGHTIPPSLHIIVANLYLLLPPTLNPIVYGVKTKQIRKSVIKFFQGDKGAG
Protocol: Functional dose-response experiments were performed to evaluate the level of DMTS activity of the modified cell line expressing individual putative DMTS receptors. Using a cell-based assay, mouse receptor Olfr1193, Olfr1093, Olfr1097, Olrf166, Olfr169, Olfr738 and Olfr742, and human receptor OR4S2 and OR52N5 were tested in an HEK293T cell line wherein the endogenous RTP1 gene has been activated and the odorant receptor chaperone protein was expressed (described in WO2016/201153). The mouse receptor genes were tagged with a Lucy-FLAG®-Rho tag combination and the human receptors were tagged with a Rho-FLAG® tag combination resulting in a tag:receptor fusion protein for the cell based assay. Receptor genes were co-transfected with the canonical olfactory human G-protein alpha subunit Golf gene and were exposed to increasing concentrations of the malodor odorant. Co-expression of the human Golf activates the Gs transduction pathway that leads to an internal cAMP increase upon binding to the appropriate ligand. Odorant-induced activity was detected by measuring the cAMP increase in the cytosol using an Homogeneous Time Resolved Fluorescence (HTRF) based kit (CisBio, cAMP dynamic 2 kit, cat. 62AM4PEJ). […]

[3] = target: T2, human receptor OR4C15 (Homo sapiens, UniProt Q8NGM1); assay: cell-based dose-response, Ca2+ increase (Calcium 5 dye, FLIPR), HEK293T line stably expressing FLAG-Rho tagged receptor with human Gα15; details: FIG. 3, Example 3, SEQ ID NO: 30, stable HEK293T
T2 construct: The receptors were tagged with a FLAG®-Rho tag combination; expressed in transfected cells
T2 sequence (Q8NGM1 with tags, fused parts or gaps): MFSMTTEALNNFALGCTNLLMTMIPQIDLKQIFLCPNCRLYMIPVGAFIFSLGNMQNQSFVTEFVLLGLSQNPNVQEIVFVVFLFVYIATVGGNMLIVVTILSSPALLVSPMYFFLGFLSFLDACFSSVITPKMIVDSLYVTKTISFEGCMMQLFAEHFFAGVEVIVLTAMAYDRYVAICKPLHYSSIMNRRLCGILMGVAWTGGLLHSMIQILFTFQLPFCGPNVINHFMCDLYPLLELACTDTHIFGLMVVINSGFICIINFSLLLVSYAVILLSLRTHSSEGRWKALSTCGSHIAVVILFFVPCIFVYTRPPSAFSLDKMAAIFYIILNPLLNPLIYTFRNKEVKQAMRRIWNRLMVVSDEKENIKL
Protocol: as §1

[4] = target: T3, human receptor OR52N2 (Homo sapiens, UniProt Q8NGI0); assay: as above; details: FIG. 3, Example 3, SEQ ID NO: 38, stable HEK293T
T3 construct: The receptors were tagged with a FLAG®-Rho tag combination; expressed in transfected cells
T3 sequence (Q8NGI0 1-321): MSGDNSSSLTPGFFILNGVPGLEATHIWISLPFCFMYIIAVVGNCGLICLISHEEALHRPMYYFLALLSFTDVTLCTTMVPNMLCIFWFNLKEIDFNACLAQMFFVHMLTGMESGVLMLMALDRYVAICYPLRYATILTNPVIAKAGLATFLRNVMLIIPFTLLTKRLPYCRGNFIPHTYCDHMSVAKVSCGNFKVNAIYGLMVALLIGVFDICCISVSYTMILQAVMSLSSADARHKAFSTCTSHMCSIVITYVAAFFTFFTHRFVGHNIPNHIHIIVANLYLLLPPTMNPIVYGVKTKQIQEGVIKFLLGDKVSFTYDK
Protocol: as §1

[5] = target: T4, human receptor OR5AC2 (Homo sapiens, UniProt Q9NZP5); assay: as above; details: FIG. 3, Example 3, SEQ ID NO: 32, stable HEK293T
T4 construct: The receptors were tagged with a FLAG®-Rho tag combination; expressed in transfected cells
T4 sequence (Q9NZP5 1-309): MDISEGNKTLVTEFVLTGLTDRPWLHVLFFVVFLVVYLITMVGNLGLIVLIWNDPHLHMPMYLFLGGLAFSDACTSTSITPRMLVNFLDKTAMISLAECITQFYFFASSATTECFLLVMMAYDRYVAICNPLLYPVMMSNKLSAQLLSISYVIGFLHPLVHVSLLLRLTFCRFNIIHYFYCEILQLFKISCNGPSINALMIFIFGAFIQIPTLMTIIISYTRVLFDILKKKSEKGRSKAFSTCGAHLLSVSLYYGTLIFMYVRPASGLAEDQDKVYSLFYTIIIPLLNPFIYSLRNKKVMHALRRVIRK
Protocol: as §1

[6] = target: T5, human receptor OR8H3 (Homo sapiens, UniProt Q8N146); assay: as above; details: FIG. 3, Example 3, SEQ ID NO: 34, stable HEK293T
T5 construct: The receptors were tagged with a FLAG®-Rho tag combination; expressed in transfected cells
T5 sequence (Q8N146 1-312): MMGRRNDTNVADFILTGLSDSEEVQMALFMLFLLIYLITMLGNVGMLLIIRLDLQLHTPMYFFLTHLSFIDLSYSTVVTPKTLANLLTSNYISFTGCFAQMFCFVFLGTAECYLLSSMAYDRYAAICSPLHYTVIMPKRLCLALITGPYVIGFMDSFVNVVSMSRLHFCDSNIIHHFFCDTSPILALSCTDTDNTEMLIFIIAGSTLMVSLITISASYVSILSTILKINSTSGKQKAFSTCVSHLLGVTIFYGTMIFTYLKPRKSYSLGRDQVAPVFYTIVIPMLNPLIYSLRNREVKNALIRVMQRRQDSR
Protocol: as §1

Question: What does the source list for CSSSC [DMTS, dimethyl trisulfide]?
Answer: receptor activity (Ca2+ increase in the cytosol, RFU) [1]: dose-dependent increase of receptor activity; EC50 [2]: 10 µM; EC50 [3]: 0.8 µM; EC50 [4]: 5 µM; EC50 [5]: 27 µM; EC50 [6]: 62 µM
